Source: ChEMBL document CHEMBL5523689, “Synthesis and antimicrobial studies of cadasides analogues via on-resin esterification” (2024)

What was measured:
Assay type in all cases: functional
Staphylococcus aureus [1] = test: Antibacterial activity against methicillin-resistant Staphylococcus aureus ATCC43300 by broth microdilution method
Staphylococcus aureus [2] = test: Antibacterial activity against […] Staphylococcus aureus ATCC25923 by broth microdilution method
Pseudomonas aeruginosa = test: Antibacterial activity against Pseudomonas aeruginosa ATCC27853 by broth microdilution method
Escherichia coli = test: Antibacterial activity against Escherichia coli ATCC25922 by broth microdilution method
Bacillus pumilus = test: Antibacterial activity against Bacillus pumilus ATCC63202 by broth microdilution method

| SMILES | MIC (Staphylococcus aureus [1]) [µg/mL] | MIC (Staphylococcus aureus [2]) [µg/mL] | MIC (Pseudomonas aeruginosa) [µg/mL] | MIC (Escherichia coli) [µg/mL] | MIC (Bacillus pumilus) [µg/mL] |
| --- | --- | --- | --- | --- | --- |
| CCCCCCCCCC(=O)N[C@@H](Cc1c[nH]c2ccccc12)C(=O)N[C@H](CC(N)=O)C(=O)N[C@@H](CC(=O)O)C(=O)N[C@@H]1C(=O)NCC(=O)N[C@@H](CCCN)C(=O)N[C@@H](CC(=O)O)C(=O)N[C@H](C)C(=O)N[C@@H](CC(=O)O)C(=O)NCC(=O)N[C@H](CO)C(=O)N[C@@H]([C@H](C)CC(=O)O)C(=O)N[C@@H](CC(=O)c2ccccc2N)C(=O)O[C@@H]1C | ≤ 5 | ≤ 5 | ≤ 5 | ≤ 5 | ≤ 5 |
| CCCCCCCCC(=O)NC[C@@H](C)C(=O)NCC(=O)N[C@H](CCC(=O)O)C(=O)N[C@@H](Cc1ccc(O)cc1)C(=O)N[C@@H]1C(=O)N[C@H]([C@H](C)CC)C(=O)N[C@@H](CC(=O)O)C(=O)N[C@@H]([C@@H](O)C(=O)OC)C(=O)N2CCC[C@H]2C(=O)NCC(=O)N[C@H](CCC(=O)O)C(=O)N[C@@H](CCC(=O)O)C(=O)N(C)CC(=O)O[C@@H]1C | ≥ 128 | ≥ 128 | ≥ 128 | ≥ 128 | ≥ 128 |
| CCCCCCCC(=O)NC[C@@H](C)C(=O)NCC(=O)N[C@H](CCC(=O)O)C(=O)N[C@@H](Cc1ccc(O)cc1)C(=O)N[C@@H]1C(=O)N[C@H]([C@H](C)CC)C(=O)N[C@@H](CC(=O)O)C(=O)N[C@@H](CC(=O)O)C(=O)N2CCC[C@H]2C(=O)NCC(=O)N[C@H](CCC(=O)O)C(=O)N[C@@H](CCC(=O)O)C(=O)N(C)CC(=O)O[C@@H]1C | ≥ 128 | ≥ 128 | ≥ 128 | ≥ 128 | ≥ 128 |

The remaining lines, values ahead:

| MIC (Staphylococcus aureus [1]) [µg/mL] | MIC (Staphylococcus aureus [2]) [µg/mL] | MIC (Pseudomonas aeruginosa) [µg/mL] | MIC (Escherichia coli) [µg/mL] | MIC (Bacillus pumilus) [µg/mL] | SMILES |
| --- | --- | --- | --- | --- | --- |
| ≥ 128 | ≥ 128 | ≥ 128 | ≥ 128 | ≥ 128 | CCCCCCCCCC(=O)NC[C@@H](C)C(=O)NCC(=O)N[C@H](CCC(=O)O)C(=O)N[C@@H](Cc1ccc(O)cc1)C(=O)N[C@@H]1C(=O)N[C@H]([C@H](C)CC)C(=O)N[C@@H](CC(=O)O)C(=O)N[C@@H]([C@@H](O)C(=O)O)C(=O)N2CCC[C@H]2C(=O)NCC(=O)N[C@H](CCC(=O)O)C(=O)N[C@@H](CCC(=O)O)C(=O)N(C)CC(=O)O[C@@H]1C |
| ≥ 128 | ≥ 128 | ≥ 128 | ≥ 128 | ≥ 128 | CCCCCCCCC(=O)NC[C@@H](C)C(=O)NCC(=O)N[C@H](CCC(=O)O)C(=O)N[C@@H](Cc1ccc(O)cc1)C(=O)N[C@@H]1C(=O)N[C@H]([C@H](C)CC)C(=O)N[C@@H](CC(=O)O)C(=O)N[C@@H]([C@@H](O)C(=O)O)C(=O)N2CCC[C@H]2C(=O)NCC(=O)N[C@H](CCC(=O)O)C(=O)N[C@@H](CCC(=O)O)C(=O)N(C)CC(=O)O[C@@H]1C |
| ≥ 128 | ≥ 128 | ≥ 128 | ≥ 128 | ≥ 128 | CCCCCCCCCC(=O)NC[C@@H](C)C(=O)NCC(=O)N[C@H](CCC(=O)O)C(=O)N[C@@H](Cc1ccc(O)cc1)C(=O)N[C@@H]1C(=O)N[C@H]([C@H](C)CC)C(=O)N[C@@H](CC(=O)O)C(=O)N[C@@H]([C@@H](O)C(=O)OC)C(=O)N2CCC[C@H]2C(=O)NCC(=O)N[C@H](CCC(=O)O)C(=O)N[C@@H](CCC(=O)O)C(=O)N(C)CC(=O)O[C@@H]1C |
